US20180179198A1, “TRICYCLIC MODULATORS OF TNF SIGNALING” (AbbVie Inc., priority 2015, published 2018)

target: TNFα trimer (Homo sapiens, UniProt P01375); test: TNFα FP Competitive Binding Assay; conditions: TNFα FP competitive binding assay; class symbols A/B/C; read-out: TNF IC50
Summary of the method: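 Compounds, 12-point 1:3 dilutions topping at 100 μM (2.0% DMSO) or 338 μM (3.4% DMSO) final, compete with 1 nM fluorescent probe for 20 nM TNFα trimer in HEPES/NaCl/EDTA/Triton buffer. After 18-24 h incubation at 37 °C plus 1 h rt equilibration, background-subtracted polarization is read and fitted with variable slope.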

TNFα trimer, sequence (P01375 77-233 limits assumed): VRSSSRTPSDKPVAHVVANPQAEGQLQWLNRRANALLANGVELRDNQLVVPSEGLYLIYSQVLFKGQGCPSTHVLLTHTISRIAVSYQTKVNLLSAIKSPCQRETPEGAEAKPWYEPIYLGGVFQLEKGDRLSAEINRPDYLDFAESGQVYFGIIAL

| IC50 [nM] | SMILES |
| --- | --- |
| 1000 to 10000 | CCOC(=O)CNc1ncc(-c2ccc3nc4c(n3c2)C(c2ccccc2OC)CCCC4)cn1 (stereo not shown) [S.2] |
| 1000 to 10000 | COc1ccccc1C1CCCCc2nc3ccc(-c4cnc(NCC(=O)O)nc4)cn3c21 (stereo not shown) [S.3] |
| < 1000 | COc1ccccc1C1CCCCc2nc3ccc(-c4cnc(C(C)(C)O)nc4)cn3c21 (stereo not shown) [S.4] |
| 1000 to 10000 | COc1ncc(-c2ccc3nc4n(c3c2)C(c2ccccc2)COC4)cc1F (stereo not shown) [T.1] |
| 1000 to 10000 | CS(=O)(=O)c1ccc(-c2ccc3nc4n(c3c2)C(c2ccccc2)COC4)cn1 (stereo not shown) [T.2] |
| 1000 to 10000 | c1ccc(C2COCc3nc4ccc(-c5cnc6nonc6c5)cc4n32)cc1 (stereo not shown) [T.3] |
| 1000 to 10000 | FC(F)(F)COc1ccc(-c2ccc3nc4n(c3c2)C(c2ccccc2)COC4)cn1 (stereo not shown) [T.4] |
| 1000 to 10000 | CC(C)Oc1ccc(-c2ccc3nc4n(c3c2)C(c2ccccc2)COC4)cn1 (stereo not shown) [T.5] |
| 10000 to 100000 | CC(=O)Nc1ccc(-c2ccc3nc4n(c3c2)C(c2ccccc2)COC4)cn1 (stereo not shown) [T.6] |
| 1000 to 10000 | COc1ncc(-c2ccc3nc4n(c3c2)C(c2ccccc2)COC4)cc1C (stereo not shown) [T.7] |
| 1000 to 10000 | Cc1nccn1-c1cnc(-c2ccc3nc4n(c3c2)C(c2ccccc2)COC4)cn1 (stereo not shown) [T.8] |
| 1000 to 10000 | c1ccc(C2COCc3nc4ccc(-c5cnc(-n6ccnc6)cn5)cc4n32)cc1 (stereo not shown) [T.9] |
| 1000 to 10000 | c1ccc(C2COCc3nc4ccc(-c5ccc(N6CCNCC6)nc5)cc4n32)cc1 (stereo not shown) [T.10] |
| 1000 to 10000 | CN1CCOc2cc(-c3ccc4nc5n(c4c3)C(c3ccccc3)COC5)cnc21 (stereo not shown) [T.11] |
| 1000 to 10000 | Cc1cc(-c2ccc3nc4n(c3c2)C(c2ccccc2)COC4)cnc1N1CCOCC1 (stereo not shown) [T.12] |
| 1000 to 10000 | CC(=O)N1CCN(c2ccc(-c3ccc4nc5n(c4c3)C(c3ccccc3)COC5)cn2)CC1 (stereo not shown) [T.13] |
| 1000 to 10000 | CN(C)c1ncc(-c2ccc3nc4n(c3c2)C(c2ccccc2)COC4)cn1 (stereo not shown) [T.14] |
| 1000 to 10000 | N#Cc1ncc(-c2ccc3nc4n(c3c2)C(c2ccccc2)COC4)cn1 (stereo not shown) [T.15] |
| 1000 to 10000 | N#Cc1ccc(-c2ccc3nc4n(c3c2)C(c2ccccc2)COC4)cn1 (stereo not shown) [T.16] |
| 1000 to 10000 | c1ccc(C2COCc3nc4ccc(-c5cnc(NC6CCCC6)nc5)cc4n32)cc1 (stereo not shown) [T.17] |
| 1000 to 10000 | Cc1ccc(-c2ccc3nc4n(c3c2)C(c2ccccc2)COC4)cn1 (stereo not shown) [T.18] |
| 10000 to 100000 | c1ccc(C2COCc3nc4ccc(-c5cnc6nccnc6c5)cc4n32)cc1 (stereo not shown) [T.19] |

| IC50 [nM] | SMILES |
| --- | --- |
| 1000 to 10000 | CN1CCN(c2ccc(-c3ccc4nc5n(c4c3)C(c3ccccc3)COC5)cn2)CC1 (stereo not shown) [T.20] |
| 1000 to 10000 | c1ccc(C2COCc3nc4ccc(-c5cnc(-n6cccn6)cn5)cc4n32)cc1 (stereo not shown) [T.21] |
| 1000 to 10000 | COc1ncc(-c2ccc3nc4n(c3c2)C(c2ccccc2)COC4)cn1 (stereo not shown) [T.22] |
| 1000 to 10000 | c1ccc(C2COCc3nc4ccc(-c5cnc(-n6cccn6)nc5)cc4n32)cc1 (stereo not shown) [T.23] |
| 1000 to 10000 | c1ccc(C2COCc3nc4ccc(-c5cnc(NC6CC6)nc5)cc4n32)cc1 (stereo not shown) [T.24] |
| < 1000 | c1ccc(C2COCc3nc4ccc(-c5ccc(N6CCOCC6)nc5)cc4n32)cc1 (stereo not shown) [T.25] |
| 10000 to 100000 | c1ccc(C2COCc3nc4ccc(-c5cncnc5)cc4n32)cc1 (stereo not shown) [T.26] |
| 10000 to 100000 | c1ccc(C2COCc3nc4ccc(-c5ccc(NCCN6CCOCC6)nc5)cc4n32)cc1 (stereo not shown) [T.28] |
| 1000 to 10000 | c1ccc(C2COCc3nc4ccc(-c5cnc6ccoc6c5)cc4n32)cc1 (stereo not shown) [T.29] |
| 1000 to 10000 | Cc1cc(-c2ccc3nc4n(c3c2)C(c2ccccc2)COC4)cnc1OC(C)C (stereo not shown) [T.30] |
| 1000 to 10000 | Cc1ncc(-c2ccc3nc4n(c3c2)C(c2ccccc2)COC4)cn1 (stereo not shown) [T.31] |
| 10000 to 100000 | Cn1cnc2cc(-c3ccc4nc5n(c4c3)C(c3ccccc3)COC5)cnc21 (stereo not shown) [T.32] |
| 1000 to 10000 | FC(F)(F)c1ccc(-c2ccc3nc4n(c3c2)C(c2ccccc2)COC4)cn1 (stereo not shown) [T.33] |
| 1000 to 10000 | Cc1cc(-c2ccc3nc4n(c3c2)C(c2ccccc2)COC4)cnc1N1CCN(C)CC1 (stereo not shown) [T.34] |
| < 1000 | CC(C)(O)c1ncc(-c2ccc3nc4n(c3c2)C(c2ccccc2)COC4)cn1 (stereo not shown) [T.35] |
| < 1000 | Fc1ccc(F)c(C2COCc3nc4ccc(-c5cnc(N6CCOCC6)nc5)cc4n32)c1 (stereo not shown) [U.1] |
| 1000 to 10000 | Fc1cccc(C2COCc3nc4ccc(-c5cnc(N6CCOCC6)nc5)cc4n32)c1 (stereo not shown) [U.2, 4-(3-Fluorophenyl)-7-(2-morpholinopyrimidin-5-yl)-3,4-dihydro-1H-benzo[4,5]imidazo[2,1-c][1,4]oxazine] |
| < 1000 | O=C1NCC2CN(c3ncc(-c4ccc5nc6n(c5c4)C(c4cccc(F)c4)COC6)cn3)CCN12 (stereo not shown) [V.1] |
| < 1000 | O=C1NCC2CN(c3ncc(-c4ccc5nc6n(c5c4)C(c4ccccc4Cl)COC6)cn3)CCN12 (stereo not shown) [V.2] |
| < 1000 | O=C1NCC2CN(c3ncc(-c4ccc5nc6n(c5c4)C4(CCc5ccccc54)COC6)cn3)CCN12 (stereo not shown) [V.3] |
| < 1000 | OC1CCN(c2ncc(-c3ccc4nc5n(c4c3)[C@@H](c3ccccc3)COC5)cn2)CC1(F)F (stereo partly shown) [W.1] |
| < 1000 | OC1CC2(CCN(c3ncc(-c4ccc5nc6n(c5c4)[C@@H](c4ccccc4)COC6)cn3)CC2)C1 [W.2] |

| IC50 [nM] | SMILES |
| --- | --- |
| < 1000 | O=S1(=O)CCN(c2ncc(-c3ccc4nc5n(c4c3)[C@@H](c3ccccc3)COC5)cn2)CC1 [W.3] |
| < 1000 | OC1CCN(c2ncc(-c3ccc4nc5n(c4c3)C(c3cccc(F)c3)COC5)cn2)CC1(F)F (stereo not shown) [X.1] |
| < 1000 | OC1CC2(CCN(c3ncc(-c4ccc5nc6n(c5c4)C(c4cccc(F)c4)COC6)cn3)CC2)C1 (stereo not shown) [X.2] |
| < 1000 | Fc1cccc(C2COCc3nc4ccc(-c5cnc(N6CCCOCC6)nc5)cc4n32)c1 (stereo not shown) [X.3] |
| < 1000 | c1ccc([C@H]2CCCc3nc4ccc(-c5cnc(N6CCOCC6)nc5)cc4n32)cc1 [Y.1] |
| < 1000 | CC(C)(O)c1ncc(-c2ccc3nc4n(c3c2)[C@@H](c2ccccc2)CCC4)cn1 [Y.2] |
| 1000 to 10000 | CC(C)(O)c1ncc(-c2ccc3nc4n(c3c2)[C@H](c2ccccc2)CCC4)cn1 [Y.3] |
| 10000 to 100000 | CC(C)(O)c1ncc(-c2ccc3nc4n(c3c2)[C@H](c2ccccc2)CC4)cn1 [Y.4] |
| 1000 to 10000 | COc1ccccc1[C@@H]1CCCc2nc3ccc(-c4cnc(C(C)(C)O)nc4)cn3c21 [Y.5] |
| < 1000 | COc1ccccc1[C@H]1CCCc2nc3ccc(-c4cnc(C(C)(C)O)nc4)cn3c21 [Y.6] |
| < 1000 | Fc1cccc([C@H]2COCc3nc4ccc(-c5cnc(N6CCOCC6)nc5)cc4n32)c1 [Y.7] |
| < 1000 | Cc1ccc(C)c([C@H]2CCc3nc4ccc(-c5cnc(C(C)(C)O)nc5)cc4n32)c1 [Y.8] |
| 1000 to 10000 | Cc1ccc(C)c([C@@H]2CCc3nc4ccc(-c5cnc(C(C)(C)O)nc5)cc4n32)c1 [Y.9] |
| < 1000 | c1ccc([C@H]2CCc3nc4ccc(-c5cnc(N6CCOCC6)nc5)nc4n32)cc1 [Y.10] |
| < 1000 | OC1CCN(c2ncc(-c3ccc4nc5n(c4n3)[C@@H](c3ccccc3)CC5)cn2)CC1 [Y.11] |
| < 1000 | CC(C)(O)c1ncc(-c2ccc3nc4n(c3n2)[C@@]2(COC4)COc3ccccc32)cn1 [Y.13] |
| < 1000 | CC(C)(O)c1ncc(-c2ccc3nc4n(c3n2)[C@]2(CCOc3ccccc32)COC4)cn1 [Y.14] |
| 1000 to 10000 | CC(C)(O)c1ncc(-c2ccc3nc4n(c3n2)[C@@]2(CCOc3ccccc32)COC4)cn1 [Y.15] |
| < 1000 | COc1ccccc1[C@H]1COCc2nc3ccc(-c4cnc(C(C)(C)O)nc4)cc3n21 [Z.1] |
| < 1000 | CC(C)(O)c1ncc(-c2ccc3nc4n(c3c2)C(c2c(Cl)cccc2Cl)COC4)cn1 (stereo not shown) [Z.2] |
